Several values for one entry are separate records, joined by “and”; a condition that tells them apart may be missing. Identical values can stand only once. Toxic doses and inconclusive results are not listed. Cut-off read from the data, not from the text of the source: active = T/C of 150% or more; inactive = T/C below 125%.
System: L1210 leukemia ip in BDF1 mice, survival T/C
Test: NCI In Vivo Anticancer Drug Screen. Data for tumor model L1210 Leukemia (intraperitoneal) in B6D2F1 (BDF1) mice
Settings: endpoint: mean survival time, higher = longer survival
Method in brief: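 Ratio derived from survival: compound-dosed mice over vehicle-dosed mice, all bearing a transplantable tumor.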

[1] = dose: 100.0 mg/kg/injection, schedule: Q04DX003 (ip), vehicle: saline with Tween-80
[2] = dose: 200.0 mg/kg/injection, schedule: Q04DX003 (ip), vehicle: saline with Tween-80
[3] = dose: 400.0 mg/kg/injection, schedule: Q04DX003 (ip), vehicle: saline with Tween-80
[4] = dose: 50.0 mg/kg/injection, schedule: Q01DX009 (ip), vehicle: saline
[5] = dose: 100.0 mg/kg/injection, schedule: Q01DX009 (ip), vehicle: saline
[6] = dose: 200.0 mg/kg/injection, schedule: Q01DX009 (ip), vehicle: saline
[7] = dose: 100.0 mg/kg/injection, schedule: Q01DX009 (ip), vehicle: Klucel (hydroxypropylcellulose) (HPC)
[8] = dose: 100.0 mg/kg/injection, schedule: Q04DX003 (ip), vehicle: Klucel (hydroxypropylcellulose) (HPC)
[9] = dose: 200.0 mg/kg/injection, schedule: Q01DX009 (ip), vehicle: Klucel (hydroxypropylcellulose) (HPC)
[10] = dose: 200.0 mg/kg/injection, schedule: Q04DX003 (ip), vehicle: Klucel (hydroxypropylcellulose) (HPC)
[11] = dose: 400.0 mg/kg/injection, schedule: Q01DX009 (ip), vehicle: Klucel (hydroxypropylcellulose) (HPC)
[12] = dose: 400.0 mg/kg/injection, schedule: Q04DX003 (ip), vehicle: Klucel (hydroxypropylcellulose) (HPC)
[13] = dose: 100.0 mg/kg/injection, schedule: Q01DX009 (ip), vehicle: saline with Tween-80
[14] = dose: 200.0 mg/kg/injection, schedule: Q01DX009 (ip), vehicle: saline with Tween-80
[15] = dose: 400.0 mg/kg/injection, schedule: Q01DX009 (ip), vehicle: saline with Tween-80
[16] = dose: 100.0 mg/kg/injection, schedule: Q04DX002 (ip), vehicle: Klucel (hydroxypropylcellulose) (HPC)
[17] = dose: 100.0 mg/kg/injection, schedule: Q01DX001 (ip), vehicle: Klucel (hydroxypropylcellulose) (HPC)
[18] = dose: 200.0 mg/kg/injection, schedule: Q01DX001 (ip), vehicle: Klucel (hydroxypropylcellulose) (HPC)

Measured: T/C

CC(=O)Nc1ccc(NC(C)=O)cc1
inactive: [1] 95 % of control | [2] 91 % of control | [3] 95 % of control

Nc1csc2cccc[n+]12
inactive: dose: 25.0 mg/kg/injection, schedule: Q04DX003 (ip), vehicle: saline 100 % of control | dose: 100.0 mg/kg/injection, schedule: Q01DX001 (ip), vehicle: saline 96 % of control

O=C(O)CC(C(=O)O)=C1CCCCC1
inactive: [4] 98 % of control | [5] 98 % of control | [6] 100 % of control

CCOC(=O)c1c(C)[nH]c(-c2ccccc2)c1C
inactive: [7] 109 % of control | [8] 102 % of control | [9] 97 % of control | [10] 100 % of control | [11] 95 % of control | [12] 94 % of control

O=C(Nc1cccc2c1N(C(=O)c1ccco1)CCC2)c1ccco1
inactive: [13] 98 % of control | [1] 94 % of control | [14] 101 % of control | [2] 96 % of control | [15] 95 % of control | [3] 96 % of control

O=C(O)c1ccc(C(=O)/C=N/O)nc1
inactive: [7] 90 % of control | [9] 93 % of control | [11] 97 % of control

S=c1[nH]c(=S)c2[nH]c(=S)[nH]c2[nH]1
inactive: [7] 91 % of control | [9] 93 % of control | [11] 95 % of control

O=[N+]([O-])c1ccc(N/N=C2\CCC3CC23)c([N+](=O)[O-])c1 (stereo unspecified)
inactive: dose: 25.0 mg/kg/injection, schedule: Q04DX002 (ip), vehicle: Klucel (hydroxypropylcellulose) (HPC) 105 % of control | dose: 50.0 mg/kg/injection, schedule: Q04DX002 (ip), vehicle: Klucel (hydroxypropylcellulose) (HPC) 102 % of control | [16] 97 % of control

O=C(O)CSC(=S)SCC(=O)O
inactive: [7] 100 % of control | [8] 100 % of control | [9] 97 % of control | [10] 105 % of control | [12] 101 % of control

O=C1C2CCN(CC2)C1CNC1(c2ccccc2)CCCCC1 (stereo unspecified)
inactive: dose: 50.0 mg/kg/injection, schedule: Q01DX001 (ip), vehicle: Klucel (hydroxypropylcellulose) (HPC) 98 % of control | [17] 92 % of control | [18] 92 % of control

ClCCCN1c2ccccc2CCc2ccccc21
inactive: dose: 100.0 mg/kg/injection, schedule: Q04DX003 (ip), vehicle: acetone 100 % of control | dose: 200.0 mg/kg/injection, schedule: Q04DX003 (ip), vehicle: acetone 100 % of control | dose: 400.0 mg/kg/injection, schedule: Q04DX003 (ip), vehicle: acetone 103 % of control

OC1CCC2CC12 (stereo unspecified)
inactive: dose: 50.0 mg/kg/injection, schedule: Q01DX001 (ip), vehicle: saline with Tween-80 98 % of control | dose: 100.0 mg/kg/injection, schedule: Q01DX001 (ip), vehicle: saline with Tween-80 102 % of control and 106 % of control | dose: 200.0 mg/kg/injection, schedule: Q01DX001 (ip), vehicle: saline with Tween-80 107 % of control and 95 % of control | dose: 400.0 mg/kg/injection, schedule: Q01DX001 (ip), vehicle: saline with Tween-80 93 % of control

CN(C)CCCN1Cc2ccccc2C1
inactive: dose: 44.0 mg/kg/injection, schedule: Q01DX Z (ip), vehicle: saline 96 % of control | dose: 66.0 mg/kg/injection, schedule: Q01DX Z (ip), vehicle: saline 100 % of control | dose: 100.0 mg/kg/injection, schedule: Q01DX Z (ip), vehicle: saline 102 % of control

O=C(Nc1ccc(C2=NCCN2)cc1)c1ccc(Cl)c(C(=O)Nc2ccc(C3=NCCN3)cc2)c1
inactive: dose: 2.0 mg/kg/injection, schedule: Q01DX Z (ip), vehicle: carboxymethylcellulose (CMC) 97 % of control | dose: 3.75 mg/kg/injection, schedule: Q01DX Z (ip), vehicle: water 102 % of control | dose: 4.0 mg/kg/injection, schedule: Q01DX Z (ip), vehicle: carboxymethylcellulose (CMC) 98 % of control | dose: 7.5 mg/kg/injection, schedule: Q01DX Z (ip), vehicle: carboxymethylcellulose (CMC) 106 % of control | dose: 7.5 mg/kg/injection, schedule: Q01DX Z (ip), vehicle: water 102 % of control | dose: 15.0 mg/kg/injection, schedule: Q01DX Z (ip), vehicle: carboxymethylcellulose (CMC) 95 % of control | dose: 15.0 mg/kg/injection, schedule: Q01DX Z (ip), vehicle: saline 115 % of control and 92 % of control | dose: 15.0 mg/kg/injection, schedule: Q01DX Z (ip), vehicle: water 106 % of control | dose: 30.0 mg/kg/injection, schedule: Q01DX Z (ip), vehicle: saline 118 % of control and 97 % of control | dose: 60.0 mg/kg/injection, schedule: Q01DX Z (ip), vehicle: saline 100 % of control

CC1CC(C)(C)[N+](C)=C(CC(O)(c2ccccc2)c2ccccc2)O1 (stereo unspecified)
inactive: dose: 6.25 mg/kg/injection, schedule: Q04DX003 (ip), vehicle: saline sonified 95 % of control | dose: 12.5 mg/kg/injection, schedule: Q04DX003 (ip), vehicle: saline sonified 104 % of control | dose: 25.0 mg/kg/injection, schedule: Q04DX003 (ip), vehicle: saline sonified 92 % of control

COc1cc(OC)c(OC)cc1/C=N/Nc1ccc(C(=O)O)cc1
inactive: [13] 95 % of control | [1] 96 % of control | [14] 97 % of control | [2] 94 % of control | [15] 101 % of control | [3] 98 % of control

CC(C)c1cc[n+](/C(C(=S)Nc2cccc(Cl)c2)=C(/[O-])c2ccc([N+](=O)[O-])cc2)cc1
inactive: [7] 105 % of control | [9] 91 % of control | [11] 94 % of control

CC(=O)Nc1nc2oc(C)nc2c(=O)[nH]1
inactive: [17] 104 % of control | [18] 97 % of control | dose: 400.0 mg/kg/injection, schedule: Q01DX001 (ip), vehicle: Klucel (hydroxypropylcellulose) (HPC) 103 % of control

c1ccc2c3c(ccc2c1)CCC/C3=N\N=C1/CCCc2ccc3ccccc3c21
inactive: [8] 90 % of control | [10] 98 % of control | [12] 92 % of control

CC1COCC(C)N1 (stereo unspecified)
inactive: dose: 25.0 mg/kg/injection, schedule: Q01DX009 (ip), vehicle: saline 101 % of control | [4] 93 % of control | [5] 90 % of control | [6] 90 % of control | dose: 400.0 mg/kg/injection, schedule: Q01DX009 (ip), vehicle: saline 92 % of control

Cc1n[n+]([O-])c(C)cc1Cl
inactive: [16] 104 % of control | dose: 200.0 mg/kg/injection, schedule: Q04DX002 (ip), vehicle: Klucel (hydroxypropylcellulose) (HPC) 104 % of control | dose: 400.0 mg/kg/injection, schedule: Q04DX002 (ip), vehicle: Klucel (hydroxypropylcellulose) (HPC) 119 % of control

COC(=O)C(O)c1cccc(OC)c1 (stereo unspecified)
inactive: [13] 96 % of control | [1] 107 % of control | [14] 93 % of control | [2] 96 % of control | [15] 104 % of control | [3] 105 % of control

O=C(N/N=C\c1cc(Cl)cc(Cl)c1O)c1cccnc1
inactive: [7] 100 % of control | [9] 89 % of control

Cc1ccc(NCC(O)CN2CCOCC2)cc1 (stereo unspecified)
inactive: dose: 3.0 mg/kg/injection, schedule: Q04DX003 (ip), vehicle: Klucel (hydroxypropylcellulose) (HPC) 107 % of control | dose: 6.0 mg/kg/injection, schedule: Q01DX009 (ip), vehicle: Klucel (hydroxypropylcellulose) (HPC) 101 % of control | dose: 6.0 mg/kg/injection, schedule: Q04DX003 (ip), vehicle: Klucel (hydroxypropylcellulose) (HPC) 100 % of control | dose: 12.0 mg/kg/injection, schedule: Q01DX009 (ip), vehicle: Klucel (hydroxypropylcellulose) (HPC) 93 % of control | dose: 12.0 mg/kg/injection, schedule: Q04DX003 (ip), vehicle: Klucel (hydroxypropylcellulose) (HPC) 103 % of control | dose: 24.0 mg/kg/injection, schedule: Q01DX009 (ip), vehicle: Klucel (hydroxypropylcellulose) (HPC) 106 % of control | dose: 100.0 mg/kg/injection, schedule: Q01DX001 (ip), vehicle: other 101 % of control

Cc1n(CCBr)c([N+](=O)[O-])c[n+]1C1N=C(c2ccccc2)c2cc(Cl)ccc2N(C)C1=O (stereo unspecified)
inactive: dose: 50.0 mg/kg/injection, schedule: Q01DX009 (ip), vehicle: Klucel (hydroxypropylcellulose) (HPC) 89 % of control | [7] 89 % of control | [9] 86 % of control
